Assay results taken from US10588935B2, “FC receptor (FcRn) binding peptides and uses thereof” (THE BRIGHAM AND WOMEN'S HOSPITAL, INC., priority 2013, dated 2020).
Several values for one entry are separate records, joined by “and”; a condition that tells them apart may be missing. Equal values may be shown once. Read-outs that look alike come from different tables or passages of the source. Each block holds one molecule with its values, some of them ahead of it. Bridge positions count the residues as written; N and C are the ends. Peptide text beside a SMILES is read from it.

Target: T1, soluble human FcRn (Homo sapiens, UniProt P55899)
T1 construct: Soluble human FcRn was expressed and purified by Biogen-Idec as previously described (29)
Assay: SPR (Biacore) affinity of peptides for immobilized soluble human FcRn
Assay type: binding
Experimental: SPR analyses were conducted using a Biacore 3000 or T100 instrument. Research-grade CM5 sensor chips and all coupling reagents for immobilization were purchased from Biacore. All proteins were cross-linked to the dextran surface of a CM5 sensor chip by standard amine coupling chemistry as recommended by Biacore. […] Binding experiments were performed at pH 6.0 or 7.4 using 50 mM phosphate, 100 mM sodium chloride and 0.01% surfactant P20. […] Bound albumin protein was then allowed to dissociate from the chip for 5 minutes with running buffer. Any remaining albumin was removed from the chip with a 60 second injection (2 cycles) of pH 8.0 Tris-HCl regeneration buffer (1 M Tris pH 8.0) at 25 μL/min flow rate. The binding responses recorded near the end of the association phase were plotted as a function of concentration. Equilibrium dissociation constants (KD), were derived from sensorgrams using the 1:1 binding model of BIAevaluation software 4.1.

[1] = Table 2, pH 6, immobilized shFcRn, data fit steady state or 2 site, read-out: Kd, pH 6** Biacore
[2] = Table 2, pH 7.4, data only 100 uM, therefore Kd may be higher, read-out: Kd, pH 7.4 Biacore
[3] = Table 1, pH 6, shFcRn immobilized on the sensor chip, steady state fit, read-out: Kd, pH 6** Biacore

SMILES: CSCC[C@H](NC(=O)[C@H](Cc1ccc(O)cc1)NC(C)=O)C(=O)N[C@H](C(=O)N[C@H]1CSSC[C@@H](C(=O)N[C@@H](C)C(=O)N[C@@H](Cc2ccc(O)cc2)C(=O)N[C@H](C(N)=O)C(C)C)NC(=O)[C@H](CO)NC(=O)[C@H](Cc2ccccc2)NC(=O)CNC(=O)[C@H](CC(=O)O)NC(=O)[C@H](CC(=O)O)NC(=O)[C@H](Cc2c[nH]c3ccccc23)NC(=O)[C@H](CCCCN)NC1=O)[C@@H](C)O [SYN1154] (Ac-YMTCKWDDGFSCAYV-NH2; disulfide 4-12 (inferred))
- Kd Ratio 7.4/6.0 (Table 2): 20
- Kd [1]: 1.5 µM and 0.46 µM

SMILES: CSCC[C@H](NC(=O)[C@H](Cc1ccc(O)cc1)NC(C)=O)C(=O)N[C@H](C(=O)N[C@H]1CSSC[C@@H](C(=O)N[C@@H](CCC(=O)O)C(=O)N[C@@H](C)C(=O)N[C@H](C(N)=O)C(C)C)NC(=O)[C@H](CO)NC(=O)[C@H](Cc2ccccc2)NC(=O)CNC(=O)[C@H](CC(=O)O)NC(=O)[C@H](CC(=O)O)NC(=O)[C@H](Cc2c[nH]c3ccccc23)NC(=O)[C@H](CCCCN)NC1=O)[C@@H](C)O [SYN1155] (Ac-YMTCKWDDGFSCEAV-NH2; disulfide 4-12 (inferred))
- Kd Ratio 7.4/6.0 (Table 2): 9.8
- Kd [2]: 17.3 µM

SMILES: CSCC[C@H](NC(=O)[C@@H](NC(C)=O)C(C)C)C(=O)N[C@@H](Cc1c[nH]cn1)C(=O)N[C@H]1CSSC[C@@H](C(=O)N[C@@H](CC(=O)O)C(=O)N[C@@H](CCC(N)=O)C(=O)NCC(N)=O)NC(=O)[C@H](CCCCN)NC(=O)[C@H](Cc2ccccc2)NC(=O)[C@H](CCC(=O)O)NC(=O)[C@H](CCC(=O)O)NC(=O)[C@H](CC(=O)O)NC(=O)[C@H](Cc2c[nH]c3ccccc23)NC(=O)[C@H](Cc2ccccc2)NC1=O [SYN1197] (Ac-VMHCFWDEEFKCDQG-NH2; disulfide 4-12 (inferred))
- Kd Ratio 7.4/6.0 (Table 2): 84

SMILES: CSCC[C@@H]1NC(=O)[C@H](CCC(=O)O)NC(=O)[C@H](CCC(=O)O)NC(=O)[C@H](CC(=O)O)NC(=O)[C@H](Cc2c[nH]c3ccccc23)NC(=O)[C@H](Cc2c[nH]c3ccccc23)NC(=O)[C@@H](NC(=O)[C@H](CCCCN)NC(=O)[C@H](CCSC)NC(=O)[C@@H](NC(=O)CNC(=O)[C@H](C)NC(C)=O)C(C)C)CSSC[C@@H](C(=O)N[C@@H](CCCNC(=N)N)C(=O)N[C@@H](C)C(=O)N[C@@H](Cc2ccccc2)C(=O)NCC(=O)N[C@H](C(=O)NCC(=O)NCC(=O)NCC(=O)N[C@@H](CCCCN)C(N)=O)[C@@H](C)O)NC(=O)[C@H](CC(C)C)NC1=O [SYN531] (Ac-AGVMKCWWDEEMLCRAFGTGGGK-NH2; disulfide 6-14 (inferred))
- Kd Ratio 7.4/6.0 (Table 2): 99
- Kd [1]: 0.45 µM and 0.3 µM

SMILES: CSCC[C@H](NC(=O)[C@@H](NC(C)=O)C(C)C)C(=O)N[C@@H](Cc1c[nH]cn1)C(=O)N[C@H]1CSSC[C@@H](C(=O)N[C@@H](CC(=O)O)C(=O)N[C@@H](CCC(N)=O)C(=O)NCC(N)=O)NC(=O)[C@H](CCCCN)NC(=O)[C@H](Cc2ccccc2)NC(=O)[C@H](C)NC(=O)[C@H](CCC(=O)O)NC(=O)[C@H](CC(=O)O)NC(=O)[C@H](Cc2c[nH]c3ccccc23)NC(=O)[C@H](Cc2ccccc2)NC1=O [SYN1216] (Ac-VMHCFWDEAFKCDQG-NH2; disulfide 4-12 (inferred))
- Kd Ratio 7.4/6.0 (Table 2): 52

SMILES: CSCC[C@H](NC(=O)[C@@H](NC(C)=O)C(C)C)C(=O)N[C@@H](Cc1c[nH]cn1)C(=O)N[C@H]1CSSC[C@@H](C(=O)N[C@@H](CC(=O)O)C(=O)N[C@@H](CCC(N)=O)C(=O)NCC(N)=O)NC(=O)[C@H](CCCNC(=N)N)NC(=O)[C@H](Cc2ccccc2)NC(=O)[C@H](C)NC(=O)[C@H](CCC(=O)O)NC(=O)[C@H](CC(=O)O)NC(=O)[C@H](Cc2c[nH]c3ccccc23)NC(=O)[C@H](Cc2ccccc2)NC1=O [SYN1382] (Ac-VMHCFWDEAFRCDQG-NH2; disulfide 4-12 (inferred))
- Kd Ratio 7.4/6.0 (Table 2): 25

SMILES: CSCC[C@H](NC(=O)[C@@H](NC(C)=O)C(C)C)C(=O)N[C@@H](Cc1c[nH]cn1)C(=O)N[C@H]1CSSC[C@@H](C(=O)N[C@@H](CC(=O)O)C(=O)N[C@@H](CCC(N)=O)C(=O)NCC(N)=O)NC(=O)[C@H](CCCCN)NC(=O)[C@H](Cc2ccccc2)NC(=O)[C@H](CCC(=O)O)NC(=O)[C@H](CCC(=O)O)NC(=O)[C@H](CC(=O)O)NC(=O)[C@H](Cc2c[nH]c3ccccc23)NC(=O)[C@H](C)NC1=O [SYN1217] (Ac-VMHCAWDEEFKCDQG-NH2; disulfide 4-12)
- Kd [1]: > 20 µM
- Kd, pH 7.4 Biacore (Table 2, pH 7.4, data only 100 uM, therefore Kd may be higher): no bind

SMILES: CSCC[C@H](NC(=O)[C@H](Cc1ccc(O)cc1)NC(C)=O)C(=O)N[C@H](C(=O)N[C@H]1CSSC[C@@H](C(=O)N[C@@H](CCC(=O)O)C(=O)N[C@@H](Cc2ccc(O)cc2)C(N)=O)NC(=O)[C@H](CO)NC(=O)[C@H](Cc2ccccc2)NC(=O)CNC(=O)[C@H](CC(=O)O)NC(=O)[C@H](CC(=O)O)NC(=O)[C@H](Cc2c[nH]c3ccccc23)NC(=O)[C@H](CCCCN)NC1=O)[C@@H](C)O [SYN1164] (Ac-YMTCKWDDGFSCEY-NH2; disulfide 4-12 (inferred))
- Kd [1]: 0.57 ± 0.02 µM

Next, values leading:

- Kd Ratio 7.4/6.0 (Table 2): 71
SMILES: CSCC[C@@H]1NC(=O)[C@H](CCC(=O)O)NC(=O)[C@H](CCC(=O)O)NC(=O)[C@H](CC(=O)O)NC(=O)[C@H](Cc2c[nH]c3ccccc23)NC(=O)[C@H](Cc2c[nH]c3ccccc23)NC(=O)[C@@H](NC(=O)[C@H](CCCCN)NC(=O)[C@H](CCSC)NC(=O)[C@@H](NC(C)=O)C(C)C)CSSC[C@@H](C(=O)N[C@@H](CCC(=O)O)C(=O)N[C@@H](C)C(=O)N[C@@H](Cc2ccccc2)C(N)=O)NC(=O)[C@H](CC(C)C)NC1=O [SYN1538] (Ac-VMKCWWDEEMLCEAF-NH2; disulfide 4-12 (inferred))

- Kd [3]: > 100 µM
SMILES: CC(=O)N[C@@H](CCCNC(=N)N)C(=O)N[C@@H](Cc1ccc(O)cc1)C(=O)N[C@@H](Cc1ccccc1)C(=O)N[C@@H](C)C(=O)N[C@H](C(=O)N[C@@H](CCCCN)C(=O)N[C@@H](Cc1c[nH]c2ccccc12)C(=O)N[C@@H](CCCCN)C(=O)N[C@@H](Cc1c[nH]cn1)C(=O)NCC(=O)N[C@@H](Cc1c[nH]c2ccccc12)C(=O)N[C@@H](C)C(=O)N[C@@H](CCC(=O)O)C(=O)N[C@@H](CCC(=O)O)C(=O)N[C@H](C(N)=O)C(C)C)[C@@H](C)O [SYN1558] (Ac-RYFATKWKHGWAEEV-NH2)

- Kd [3]: > 100 µM
SMILES: CC(=O)N[C@@H](CCCNC(=N)N)C(=O)N[C@@H](Cc1ccc(O)cc1)C(=O)N[C@@H](Cc1ccccc1)C(=O)N[C@H]1CSSC[C@@H](C(=O)N[C@@H](CCC(=O)O)C(=O)N[C@@H](CCC(=O)O)C(=O)N[C@@H](C)C(N)=O)NC(=O)[C@H](Cc2c[nH]c3ccccc23)NC(=O)CNC(=O)[C@H](Cc2c[nH]cn2)NC(=O)[C@H](CCCCN)NC(=O)[C@H](Cc2c[nH]c3ccccc23)NC(=O)[C@H](CCCCN)NC(=O)[C@H]([C@@H](C)O)NC1=O [SYN1554] (Ac-RYFCTKWKHGWCEEA-NH2; disulfide 4-12)

- Kd Ratio 7.4/6.0 (Table 2): 112
- Kd [2]: 17.3 µM
SMILES: CSCC[C@@H]1NC(=O)[C@H](CCC(=O)O)NC(=O)[C@H](CCC(=O)O)NC(=O)[C@H](CC(=O)O)NC(=O)[C@H](Cc2c[nH]c3ccccc23)NC(=O)[C@H](Cc2c[nH]c3ccccc23)NC(=O)[C@@H](NC(=O)[C@H](CCCCN)NC(=O)[C@H](CCSC)NC(=O)[C@@H](NC(C)=O)C(C)C)CSSC[C@@H](C(=O)N[C@@H](CCCNC(=N)N)C(=O)N[C@@H](C)C(=O)N[C@@H](Cc2ccccc2)C(N)=O)NC(=O)[C@H](CC(C)C)NC1=O [SYN1532] (Ac-VMKCWWDEEMLCRAF-NH2; disulfide 4-12 (inferred))

- Kd Ratio 7.4/6.0 (Table 2): 83
- Kd [2]: 8.6 µM
SMILES: CSCC[C@@H]1NC(=O)[C@H](CCC(=O)O)NC(=O)[C@H](CCC(=O)O)NC(=O)[C@H](CC(=O)O)NC(=O)[C@H](Cc2c[nH]c3ccccc23)NC(=O)[C@H](Cc2c[nH]c3ccccc23)NC(=O)[C@@H](NC(=O)[C@H](CCCCN)NC(=O)[C@H](CCSC)NC(=O)[C@@H](NC(C)=O)C(C)C)CSSC[C@@H](C(=O)N[C@@H](CCCNC(=N)N)C(=O)N[C@@H](Cc2ccc(O)cc2)C(=O)N[C@@H](Cc2ccccc2)C(N)=O)NC(=O)[C@H](CC(C)C)NC1=O [SYN1539] (Ac-VMKCWWDEEMLCRYF-NH2; disulfide 4-12 (inferred))

- Kd Ratio 7.4/6.0 (Table 2): 80
SMILES: CSCC[C@@H]1NC(=O)[C@H](CCC(=O)O)NC(=O)[C@H](CCC(=O)O)NC(=O)[C@H](CC(=O)O)NC(=O)[C@H](Cc2c[nH]c3ccccc23)NC(=O)[C@H](Cc2c[nH]c3ccccc23)NC(=O)[C@@H](NC(=O)[C@H](CCCCN)NC(=O)[C@H](CCSC)NC(=O)[C@@H](NC(C)=O)C(C)C)CSSC[C@@H](C(=O)N[C@@H](CCCNC(=N)N)C(=O)N[C@@H](C)C(=O)N[C@H](C(N)=O)C(C)C)NC(=O)[C@H](CC(C)C)NC1=O [SYN1540 A] (Ac-VMKCWWDEEMLCRAV-NH2; disulfide 4-12)

- Kd [3]: > 100 µM
SMILES: CC(=O)N[C@@H](CCCNC(=N)N)C(=O)N[C@@H](Cc1ccc(O)cc1)C(=O)N[C@@H](Cc1ccccc1)C(=O)N[C@H]1CSSC[C@@H](C(=O)N[C@@H](CCC(=O)O)C(=O)N[C@@H](CCC(=O)O)C(=O)N[C@H](C(N)=O)C(C)C)NC(=O)[C@H](Cc2c[nH]c3ccccc23)NC(=O)CNC(=O)[C@H](Cc2c[nH]cn2)NC(=O)[C@H](CCCCN)NC(=O)[C@H](C)NC(=O)[C@H](CCCCN)NC(=O)[C@H]([C@@H](C)O)NC1=O [SYN1547] (Ac-RYFCTKAKHGWCEEV-NH2; disulfide 4-12)
